The values that follow come from paper PMC6299835 (Toxicon : official journal of the International Society on …, 2018).

For assay [1], the system named is mice. As to conditions: mouse, in vivo; cited from earlier work.
Assay [2] has as its target human MrgprX1 (hMrgprX1) (Homo sapiens, UniProt Q96LB2). Put plainly: cell-based. The class given is cell-based.
Assay [3] addresses T1, MrgprC11 (Mus musculus, UniProt Q8CIP3).
T1 sequence (Q8CIP3 1-322): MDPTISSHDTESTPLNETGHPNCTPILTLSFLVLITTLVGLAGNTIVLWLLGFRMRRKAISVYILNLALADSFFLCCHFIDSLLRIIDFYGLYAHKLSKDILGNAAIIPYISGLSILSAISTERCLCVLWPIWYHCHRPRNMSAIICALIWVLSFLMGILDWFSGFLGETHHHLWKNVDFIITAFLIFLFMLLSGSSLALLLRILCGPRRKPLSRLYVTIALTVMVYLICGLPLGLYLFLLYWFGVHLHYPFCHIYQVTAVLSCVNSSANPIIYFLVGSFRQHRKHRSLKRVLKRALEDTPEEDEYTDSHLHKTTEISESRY
Type of assay: cell-based.

Assay [4] concerns hMrgprX1;Mrgpr-cluster∆−/− transgenic mouse. To be noted: in vivo.

“Also recorded” adds a separate entry of the source. No end group written: not given here.

Chain of human MrgprX1 (hMrgprX1) (Q96LB2 whole entry, looked up): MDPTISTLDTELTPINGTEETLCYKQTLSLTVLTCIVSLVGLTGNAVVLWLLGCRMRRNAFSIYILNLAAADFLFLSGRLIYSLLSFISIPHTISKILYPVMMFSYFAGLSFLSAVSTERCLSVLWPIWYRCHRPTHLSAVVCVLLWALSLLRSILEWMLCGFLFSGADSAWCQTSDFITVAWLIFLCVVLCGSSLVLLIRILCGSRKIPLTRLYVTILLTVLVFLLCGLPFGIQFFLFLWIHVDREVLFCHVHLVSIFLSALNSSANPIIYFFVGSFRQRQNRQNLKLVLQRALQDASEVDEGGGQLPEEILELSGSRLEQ

For orientation: EC50 means the concentration needed to bring the measured effect to its halfway point. A low value points to an effect from little substance. For the substance HSGFLLAWSGPRNRFVRF-NH2 [CNF-Vc1], the “Behaviour of mice after intracranial injection” value in assay [1] is given as “renders mice unable to move; also recorded: hypoactive behavior”. Further, in assay [2], the “Activation of hMrgprX1” value was “activates” and the EC50 turned out to be 1800 nM. The “Activation of MrgprC11” value in assay [3] is recorded as “activates”. For the same substance, in assay [4], the “Itch-related scratching after intradermal cheek injection of peptide” value was “induces significant scratching”.
